Laboratory results reported in patent publication US12551459B2, “Combination of kynurenine and antigen presenting cells (APC) as therapeutics and methods for their use in immune modulation” (THE UNIVERSITY OF BRITISH COLUMBIA, priority 2014, dated 2026).

Legend:
[1] = design: species or system mice; settings: NOD (non-obese diabetic), mouse, in vivo, sc
Method: Non-obese diabetic (NOD) mice were intraperitoneal (IP) injected with normal fibroblasts (non-IDO-expressing, 2×10^7 cells per mouse) at the onset of hyperglycemia. Following IP fibroblast injection, the mice were given daily subcutaneous DL-kynurenine injections (20 μg/mouse). The blood glucose levels were monitored twice a week. For the controls, mice were either given only the IP fibroblast injection, or only the daily subcutaneous kynurenine injections as set out above, or were give no treatment at all.
Furthermore, in mouse 1 and mouse 2 (shown in FIG. 1) the subcutaneous kynurenine injections were stopped at 119 and 77 days post IP fibroblast injection, respectively, without a subsequent increase in blood glucose above 10 mM. Kyn injections were done daily because it was cleared from the blood within 8-10 hours. Glucose levels were monitored for up to 120 days, but control groups were sacrificed at earlier time points due to a high level of glucose and prevent the mice from suffering.

[2] = tested on: C3H/HeJ mice induced to develop alopecia areata (AA); experiment: Prevention of alopecia areata in C3H/HeJ mice by fibroblast + kynurenine treatment; format: in vivo
Method: Prevention of alopecia areata by combination fibroblast+kynurenine treatment: C3H/HeJ mice were induce to develop alopecia areata (AA) by intradermal injection of lymph node cells from AA affected mice. These mice (5 per group) then received either no treatment, a single-dose injection of 2×10^6 unmodified primary dermal fibroblasts to peritoneal cavity, oral kynurenine (added to drinking water, 100 μg/mL), or a combination therapy consisting of a) single-dose injection of 2×10^6 unmodified primary dermal fibroblasts to peritoneal cavity and b) oral kynurenine (added to drinking water, 100 μg/mL).

[3] = after 120 days, of Total mice per group

| cleared from the blood within [1] | Structure (SMILES) | hair loss pattern after 120 days ([2]; FIG. 4A) | AA (number of mice with alopecia areata) [2, 3] | Normal (number of mice) [2, 3] | Prevention (%) ([2]; prevention of AA) |
| --- | --- | --- | --- | --- | --- |
| 8 to 10 h | Nc1ccccc1C(=O)CC(N)C(=O)O (racemic) [Kyn, DL-kynurenine] | – | – | – | – |
| – | Nc1ccccc1C(=O)CC(N)C(=O)O (centres unmarked) [FS1 alone, kynurenine] | some hair growth | 4 | 1 | 20% |
